Data: ChEMBL document CHEMBL5055685, “Discovery of the First Potent IDO1/IDO2 Dual Inhibitors: A Promising Strategy for Cancer Immunotherapy” (J Med Chem, 2021)
Calls of active or inactive are those of the source. The calls are words filed in the database; no cut-off is given here.

Columns and labels:
[1] = molecular target: T1, Indoleamine 2,3-dioxygenase 1 (Homo sapiens, UniProt P14902); assay: Inhibition of IDO1 (unknown origin) assessed as reduction in kynurenine formation using L-tryptophan as substrate by methylene blue reagent based assay
Target sequence in this assay (P14902 whole entry): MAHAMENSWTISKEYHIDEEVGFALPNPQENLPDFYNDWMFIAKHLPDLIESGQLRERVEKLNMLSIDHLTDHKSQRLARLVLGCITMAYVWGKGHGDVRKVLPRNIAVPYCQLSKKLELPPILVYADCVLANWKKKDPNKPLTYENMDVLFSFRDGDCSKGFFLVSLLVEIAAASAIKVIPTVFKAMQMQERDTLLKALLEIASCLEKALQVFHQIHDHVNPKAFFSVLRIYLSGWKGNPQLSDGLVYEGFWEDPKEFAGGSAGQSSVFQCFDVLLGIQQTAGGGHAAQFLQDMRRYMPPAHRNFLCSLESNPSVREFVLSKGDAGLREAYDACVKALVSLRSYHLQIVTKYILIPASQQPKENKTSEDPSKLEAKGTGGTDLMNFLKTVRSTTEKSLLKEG

[2] = molecular target: T2, Indoleamine 2,3-dioxygenase 2 (Homo sapiens, UniProt Q6ZQW0); assay: Inhibition of IDO2 (unknown origin) assessed as reduction in kynurenine formation using L-tryptophan as substrate by methylene blue reagent based assay
T2 sequence (Q6ZQW0 whole entry): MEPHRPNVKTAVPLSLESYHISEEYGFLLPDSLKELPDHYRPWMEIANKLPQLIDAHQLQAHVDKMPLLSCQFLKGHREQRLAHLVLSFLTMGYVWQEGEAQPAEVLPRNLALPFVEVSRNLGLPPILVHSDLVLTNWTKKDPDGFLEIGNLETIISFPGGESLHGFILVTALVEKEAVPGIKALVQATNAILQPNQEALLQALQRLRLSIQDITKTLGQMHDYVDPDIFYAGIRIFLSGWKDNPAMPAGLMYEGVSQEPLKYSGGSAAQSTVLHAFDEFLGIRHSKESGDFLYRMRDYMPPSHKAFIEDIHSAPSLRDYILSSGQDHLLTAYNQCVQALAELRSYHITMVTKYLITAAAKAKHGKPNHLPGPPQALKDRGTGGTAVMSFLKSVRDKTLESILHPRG

[3] = molecular target: T1, Indoleamine 2,3-dioxygenase 1; assay: Inhibition of IDO1 (unknown origin) assessed as reduction in kynurenine formation using L-tryptophan as substrate by methylene blue reagent based assay relative to control; set-up: concentration or dose not given beside the values; conditions: concentration not given here
Target sequence in this assay (P14902 whole entry, looked up): as the sequence (P14902 whole entry) above

[4] = molecular target: T3, Indoleamine 2,3-dioxygenase 2 (Homo sapiens) (UniProt Q6ZQW0); assay: Inhibition of IDO2 (unknown origin) assessed as reduction in kynurenine formation using L-tryptophan as substrate by methylene blue reagent based assay relative to control; set-up: concentration or dose not given beside the values; conditions: concentration not given here
T3 sequence (whole entry): T2 sequence (Q6ZQW0 whole entry)

[5] = AUC (0 to infinity) in Sprague-Dawley rat at 5 mg/kg, iv; type: ADME, organism-based; set-up: time infinity, dose 5 mg/kg, route iv; conditions: in vivo
[6] = system: HT-29; assay: Cytotoxicity against human HT-29 cells assessed as reduction in cell viability by CCK8 assay; type: functional, cell-based
[7] = AUC (0 to t) in Sprague-Dawley rat at 5 mg/kg, iv; type: ADME, organism-based; set-up: dose 5 mg/kg, route iv; conditions: in vivo
[8] = system: PBMC; assay: Inhibition of IDO1/IDO2 in IFNgamma/LPS-stimulated human PBMCs assessed as reduction in kynurenine formation at 0.0001 to 10 uM pretreated with compound for 15 mins followed by IFNgamma/LPS stimulation by LC-MS/MS analysis; type: tissue-based; conditions: dose 0.0001-10 µM
[9] = system: HeLa; assay: Cytotoxicity against human HeLa cells assessed as reduction in cell viability at 1 to 10 uM by CCK8 assay; type: functional, cell-based; conditions: dose 1-10 µM
[10] = system: CT26; assay: Cytotoxicity against mouse CT26 cells assessed as reduction in cell viability by CCK8 assay; type: functional, cell-based
[11] = system: HCT-116; assay: Cytotoxicity against human HCT-116 cells assessed as reduction in cell viability by CCK8 assay; type: functional, cell-based
[12] = Half life in Sprague-Dawley rat at 5 mg/kg, iv; type: ADME, organism-based; conditions: in vivo
[13] = Volume of distribution at steady state in Sprague-Dawley rat at 5 mg/kg, iv; type: ADME, organism-based; conditions: in vivo, read-out: Vdss
[14] = AUC (0 to t) in Sprague-Dawley rat at 50 mg/kg, po; type: ADME, organism-based; set-up: dose 50 mg/kg, route po; conditions: in vivo
[15] = AUC (0 to infinity) in Sprague-Dawley rat at 50 mg/kg, po; type: ADME, organism-based; set-up: time infinity, dose 50 mg/kg, route po; conditions: in vivo
[16] = Cmax in Sprague-Dawley rat at 50 mg/kg, po; type: ADME, organism-based; set-up: dose 50 mg/kg, route po; conditions: in vivo
[17] = Tmax in Sprague-Dawley rat at 50 mg/kg, po; type: ADME, organism-based; conditions: in vivo
[18] = Half life in Sprague-Dawley rat at 50 mg/kg, po; type: ADME, organism-based; conditions: in vivo
[19] = Oral bioavailability in Sprague-Dawley rat at 50 mg/kg; type: ADME, organism-based; conditions: in vivo
[20] = Metabolic stability in human liver microsomes assessed as rate constant; type: ADME, Microsome
[21] = Half life in human liver microsomes; type: ADME, Microsome
[22] = Intrinsic clearance in human liver microsomes; type: ADME, Microsome; conditions: read-out: CLH
[23] = Metabolic stability in monkey liver microsomes assessed as rate constant; type: ADME, Macaca mulatta, Microsome; conditions: rhesus monkey
[24] = Half life in monkey liver microsomes; type: ADME, Macaca mulatta, Microsome; conditions: rhesus monkey
[25] = Intrinsic clearance in monkey liver microsomes; type: ADME, Macaca mulatta, Microsome; conditions: rhesus monkey, read-out: CLH
[26] = Metabolic stability in dog liver microsomes assessed as rate constant; type: ADME, Canis lupus familiaris, Microsome
[27] = Half life in dog liver microsomes assessed as rate constant; type: ADME, Canis lupus familiaris, Microsome
[28] = Clearance in dog liver microsomes; type: ADME, Canis lupus familiaris, Microsome; conditions: read-out: CLH
[29] = Metabolic stability in rat liver microsomes assessed as rate constant; type: ADME, Microsome
[30] = Half life in rat liver microsomes; type: ADME, Microsome
[31] = Clearance in rat liver microsomes; type: ADME, Microsome; conditions: read-out: CLH
[32] = Metabolic stability in mouse liver microsomes assessed as rate constant; type: ADME, Microsome
[33] = Half life in mouse liver microsomes; type: ADME, Microsome
[34] = Clearance in mouse liver microsomes; type: ADME, Microsome; conditions: read-out: CLH
[35] = Apparent permeability across apical to basolateral side in human Caco-2 cells assessed as drug recovery; type: ADME, cell-based; conditions: read-out: Drug recovery
[36] = Apparent permeability across basolateral to apical side in human Caco-2 cells assessed as drug recovery; type: ADME, cell-based; conditions: read-out: Drug recovery
[37] = Apparent permeability across apical to basolateral side in human Caco-2 cells; type: ADME, cell-based
[38] = Apparent permeability across basolateral to apical side in human Caco-2 cells; type: ADME, cell-based
[39] = Efflux ratio of apparent permeability across basolateral to apical over apical to basolateral side in human Caco-2 cells; type: ADME, cell-based
[40] = Protein binding in human plasma assessed as fraction unbound by equilibrium dialysis; type: ADME, cell-free
[41] = Protein binding in human plasma by equilibrium dialysis; type: ADME, cell-free; conditions: read-out: PPB (converted)
[42] = Protein binding in monkey plasma assessed as fraction unbound by equilibrium dialysis; type: ADME, cell-free, Macaca mulatta; conditions: rhesus monkey
[43] = Protein binding in monkey plasma by equilibrium dialysis by equilibrium dialysis; type: ADME, cell-free, Macaca mulatta; conditions: rhesus monkey, read-out: PPB (converted)
[44] = Protein binding in Beagle dog plasma assessed as fraction unbound by equilibrium dialysis; type: ADME, cell-free, Canis lupus familiaris
[45] = Protein binding in Beagle dog plasma by equilibrium dialysis; type: ADME, cell-free, Canis lupus familiaris; conditions: read-out: PPB (converted)
[46] = Protein binding in Sprague-Dawley rat plasma assessed as fraction unbound by equilibrium dialysis; type: ADME, cell-free
[47] = Protein binding in Sprague-Dawley rat plasma by equilibrium dialysis; type: ADME, cell-free; conditions: read-out: PPB (converted)
[48] = Protein binding in ICR mouse plasma assessed as fraction unbound by equilibrium dialysis; type: ADME, cell-free
[49] = Protein binding in ICR mouse plasma by equilibrium dialysis; type: ADME, cell-free; conditions: read-out: PPB (converted)
[50] = system: Rattus norvegicus; assay: Toxicity in rat assessed as rat death at […]; type: organism-based; conditions: in vivo
[51] = system: Rattus norvegicus; assay: Toxicity in rat assessed as weight loss at […]; type: organism-based; conditions: in vivo
[52] = Toxicity in rat assessed as maximum tolerated dose; type: organism-based; conditions: in vivo
[53] = molecular target: Voltage-gated inwardly rectifying potassium channel KCNH2 (Homo sapiens, UniProt Q12809); assay: Inhibition of human ERG
[54] = system: CT26; assay: Antitumor activity against mouse CT26 cells implanted in BALB/c mouse assessed as tumor growth inhibition at 50 mg/kg, ip bid for 28 days by vernier caliper method relative to control; type: functional; conditions: CT26, 672 h, time 28 day, read-out: TGI
[55] = system: Mus musculus; assay: Toxicity in BALB/c mouse implanted with mouse CT26 cells assessed as weight loss at 50 mg/kg, ip bid for 28 days; type: organism-based; conditions: in vivo, 672 h, time 28 day
[56] = system: Mus musculus; assay: Toxicity in BALB/c mouse implanted with mouse CT26 cells assessed as adverse effect at 50 mg/kg, ip bid for 28 days; type: organism-based; conditions: in vivo, 672 h, time 28 day
[57] = system: HCT-116; assay: Antitumor activity against human HCT-116 cells xenografted in BALB/c nude mouse assessed as tumor growth inhibition at 300 mg/kg, ig bid for 21 days by vernier caliper method; type: functional, organism-based; conditions: time 21.0 day
[58] = system: Mus musculus; assay: In vivo inhibition of IDO2 in BALB/c mouse xenografted with human HCT-116 cells assessed as suppression of IDO2 expression in tumor by immunohistochemical assay; type: functional, organism-based
[59] = system: Mus musculus; assay: In vivo inhibition of IDO1/IDO2 in BALB/c mouse xenografted with human HCT-116 cells assessed as downregulation of Foxp3 expression in tumor by immunohistochemical assay; type: functional, organism-based
[60] = system: Mus musculus; assay: In vivo inhibition of TDO in BALB/c mouse xenografted with human HCT-116 cells assessed as suppression of TDO expression in tumor by immunohistochemical assay; type: functional, organism-based
[61] = system: Mus musculus; assay: In vivo inhibition of IDO2 in BALB/c mouse xenografted with human HCT-116 cells assessed as suppression of IDO2 mRNA expression in tumor by quantitative RT-PCR analysis; type: functional, organism-based
[62] = system: Mus musculus; assay: In vivo inhibition of IDO1/IDO2 in BALB/c mouse xenografted with human HCT-116 cells assessed as downregulation of Foxp3 mRNA expression in tumor by quantitative RT-PCR analysis; type: functional, organism-based
[63] = system: Mus musculus; assay: In vivo inhibition of TDO in BALB/c mouse xenografted with human HCT-116 cells assessed as suppression of TDO mRNA expression in tumor by quantitative RT-PCR analysis; type: functional, organism-based

Chain of Voltage-gated inwardly rectifying potassium channel KCNH2 (Q12809 whole entry): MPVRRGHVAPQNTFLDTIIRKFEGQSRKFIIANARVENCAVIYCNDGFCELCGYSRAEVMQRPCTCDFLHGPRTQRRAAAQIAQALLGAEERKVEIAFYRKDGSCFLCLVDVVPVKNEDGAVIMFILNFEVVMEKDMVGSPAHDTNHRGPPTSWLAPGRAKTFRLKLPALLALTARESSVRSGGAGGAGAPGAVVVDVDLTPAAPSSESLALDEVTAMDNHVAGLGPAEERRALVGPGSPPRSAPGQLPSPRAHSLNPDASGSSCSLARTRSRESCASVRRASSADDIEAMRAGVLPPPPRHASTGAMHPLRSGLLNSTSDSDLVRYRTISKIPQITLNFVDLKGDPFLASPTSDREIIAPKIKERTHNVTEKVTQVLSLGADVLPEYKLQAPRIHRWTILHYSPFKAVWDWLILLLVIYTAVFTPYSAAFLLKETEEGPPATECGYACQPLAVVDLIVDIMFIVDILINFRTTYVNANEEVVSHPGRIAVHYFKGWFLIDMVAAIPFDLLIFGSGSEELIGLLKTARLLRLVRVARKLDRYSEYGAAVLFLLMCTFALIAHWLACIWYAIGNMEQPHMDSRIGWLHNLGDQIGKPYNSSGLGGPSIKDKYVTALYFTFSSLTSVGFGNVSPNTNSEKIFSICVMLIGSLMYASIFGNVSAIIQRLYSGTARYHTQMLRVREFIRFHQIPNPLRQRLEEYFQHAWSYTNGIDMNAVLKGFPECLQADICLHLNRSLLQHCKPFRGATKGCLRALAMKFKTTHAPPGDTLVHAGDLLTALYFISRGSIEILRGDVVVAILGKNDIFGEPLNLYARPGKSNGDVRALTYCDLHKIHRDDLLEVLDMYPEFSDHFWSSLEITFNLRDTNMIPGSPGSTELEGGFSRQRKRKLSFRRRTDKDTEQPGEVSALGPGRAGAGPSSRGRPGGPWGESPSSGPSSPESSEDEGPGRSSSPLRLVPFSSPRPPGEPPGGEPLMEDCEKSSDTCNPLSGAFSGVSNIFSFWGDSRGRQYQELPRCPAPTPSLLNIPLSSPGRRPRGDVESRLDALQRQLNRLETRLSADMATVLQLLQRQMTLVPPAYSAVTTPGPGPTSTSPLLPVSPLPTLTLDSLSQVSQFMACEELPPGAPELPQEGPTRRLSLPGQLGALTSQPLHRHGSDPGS

SMILES: OCCCCc1cn(CCNc2nonc2/C(=N/O)Nc2ccc(F)c(Br)c2)nn1
- IC50 [1]: 80 nM
- IC50 [2]: 1080 nM

SMILES: CC(C)(OCCO)c1cn(CCNc2nonc2/C(=N/O)Nc2ccc(F)c(Br)c2)nn1
- IC50 [1]: 176 nM
- IC50 [2]: 1170 nM

SMILES: Nc1cccc(-c2cn(CCNc3nonc3/C(=N/O)Nc3ccc(F)c(Br)c3)nn2)c1
- inhibition [3]: 7%
- inhibition [4]: 12%

SMILES: CC(O)c1cn(CCNc2nonc2/C(=N/O)Nc2ccc(F)c(Br)c2)nn1 (stereo not given)
- AUC [5]: 5670 ng·h/mL
- IC50 [6]: 46000 nM
- AUC(0-t) [7]: 5590 ng·h/mL
- IC50 [1]: 53 nM
- IC50 [2]: 362 nM
- inhibition [8]: Active
- Activity [9]: Active
- IC50 [10]: 27500 nM
- IC50 [11]: 23700 nM
- half-life [12]: 48 min
- Vd [13]: 1.2 L/kg
- AUC(0-t) [14]: 11300 ng·h/mL
- AUC(0-inf) [15]: 11500 ng·h/mL
- Cmax [16]: 2730 ng/mL
- Tmax [17]: 25.2 min
- half-life [18]: 78 min
- bioavailability [19]: 20.4%
- k el [20]: 4.35e-05 s⁻¹
- half-life [21]: 272 min
- microsomal CLint [22]: 5.22 µL/min/mg
- k el [23]: 0.000168 s⁻¹
- half-life [24]: 68.8 min
- microsomal CLint [25]: 20.2 µL/min/mg
- k el [26]: 0.00218 s⁻¹
- half-life [27]: 5.31 min
- microsomal CLint [28]: 261 µL/min/mg
- k el [29]: 0.00218 s⁻¹
- half-life [30]: 21.6 min
- microsomal CLint [31]: 64.2 µL/min/mg
- K [32]: 0.0168 min⁻¹
- half-life [33]: 41.2 min
- microsomal CLint [34]: 33.6 µL/min/mg
- recovery [35]: 95.5%
- recovery [36]: 116%
- Papp A→B [37]: 13.8 ×10⁻⁶ cm/s
- Papp B→A [38]: 80.9 ×10⁻⁶ cm/s
- efflux ratio [39]: 5.9
- fraction unbound [40]: 0.0192
- fraction unbound [41]: 0.0192
- fraction unbound [42]: 0.0371
- fraction unbound [43]: 0.0371
- fraction unbound [44]: 0.0239
- fraction unbound [45]: 0.0239
- fraction unbound [46]: 0.044
- fraction unbound [47]: 0.04
- fraction unbound [48]: 0.0584
- fraction unbound [49]: 0.0584
- Activity [50]: Non-Toxic
- Activity [51]: Non-Toxic
- MTD [52]: 2 mg/kg
- IC50 [53]: > 30000 nM
- inhibition in vivo at 50 mg/kg [54]: 66.3%
- Activity [55]: Non-Toxic
- Activity [56]: Non-Toxic

SMILES: CC(C)(C)c1cn(CCNc2nonc2/C(=N/O)Nc2ccc(F)c(Br)c2)nn1
- IC50 [1]: 132 nM
- IC50 [2]: 1870 nM

SMILES: COCc1cn(CCNc2nonc2/C(=N/O)Nc2ccc(F)c(Br)c2)nn1
- inhibition [3]: 20.5%
- inhibition [4]: 7%

SMILES: NS(=O)(=O)NCCNc1nonc1/C(=N/O)Nc1ccc(F)c(Br)c1 [EPACADOSTAT]
- IC50 [6]: 63000 nM
- IC50 [10]: 47100 nM
- IC50 [11]: 37100 nM
- inhibition in vivo at 50 mg/kg [54]: 49.4%
- Activity [57]: inactive
- inhibition [58]: inactive
- inhibition [59]: inactive
- inhibition [60]: inactive
- inhibition [61]: inactive
- inhibition [62]: inactive
- inhibition [63]: inactive
